The values below come from patent US10550100B2, “5-[3-[piperzin-1-yl]-3-oxo-propyl]-imidazolidine-2,4-dione derivatives as ADAMTS 4 and 5 inhibitors for treating E.G. osteoarthritis” (GALAPAGOS NV, priority 2016, dated 2020).

What all share (type): biochemical
In one assay the target is human ADAMTS-5 (Homo sapiens (Human), UniProt Q9UNA0). The assay is described as follows: hADAMTS-5 TBIS-1 cleavage assay, Protocol 2. As to conditions: Protocol 2, TBIS-1 substrate, 45 min at 37° C.; read-out: hADAMTS-5 potency IC50. The procedure:
The basis for the assay is the cleavage of the substrate TBIS-1 (5 FAM-[…] (5TAMRA)K-NH2) (SEQ ID NO: 2) by human ADAMTS-5.
The reaction is initiated by adding to the assay plate TBIS-1 (10 μL, 4.5 μM, Anaspec) in the same buffer.
Finally, the fluorescence is read on the Envision (Perkin Elmer) after an incubation of 45 min at 37° C. (Excitation 485 nm, emission 530).

Another assay deals with human ADAMTS6 (Homo sapiens (Human), UniProt Q9UKP5). Nature of the assay: hADAMTS-6 520 MMP FRET substrate XII cleavage assay. To be noted: 37° C. for 2 h, read-out: hADAMTS-6 potency IC50. In outline: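 FRET cleavage of 520 MMP Substrate XII (Arg-Pro-Lys-Pro-Tyr-Ala-Nva-Trp-Met-Lys) by 0.73 nM enzyme in 25 mM Tris pH8.0, 0.05% CHAPS, 2.5 mM CaCl2. Compound dilution series from 20 μM top, 1/5 steps; substrate added from 1 μM stock, 2 h at 37° C. Fluorescence read at exc485/em530 for IC50.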

Another assay concerns the target human TACE (Homo sapiens (Human), UniProt P78536). The assay is described as follows: hTACE 5FAM-[…]-5TAMRA cleavage assay. As to conditions: 5FAM-LAQAVRSSSRK-5TAMRA, 75 min at room temperature; read-out: hTACE potency IC50. Here is the method: Finally, the fluorescence is read on the Envision (Perkin Elmer) after an incubation of 75 min at room temperature (Excitation 485 nm, Emission 530).

The target in another assay is human MMP13 (Homo sapiens (Human), UniProt P45452). The assay is described as follows: hMMP13 390 MMP FRET Substrate I cleavage assay, Protocol 1. To be noted: Protocol 1, 390 MMP FRET Substrate I; read-out: hMMP-13 potency IC50. Summed up:
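Human MMP13 was preactivated with 1 mM p-aminophenylmercuric acetate for 1 h at 37° C. Cleavage of 390 MMP FRET Substrate I (2.5 μM as added) ran 45 min at room temperature, with fluorescence read at 485 nm excitation and 530 nm emission.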

Chain of human TACE (P78536 215-671): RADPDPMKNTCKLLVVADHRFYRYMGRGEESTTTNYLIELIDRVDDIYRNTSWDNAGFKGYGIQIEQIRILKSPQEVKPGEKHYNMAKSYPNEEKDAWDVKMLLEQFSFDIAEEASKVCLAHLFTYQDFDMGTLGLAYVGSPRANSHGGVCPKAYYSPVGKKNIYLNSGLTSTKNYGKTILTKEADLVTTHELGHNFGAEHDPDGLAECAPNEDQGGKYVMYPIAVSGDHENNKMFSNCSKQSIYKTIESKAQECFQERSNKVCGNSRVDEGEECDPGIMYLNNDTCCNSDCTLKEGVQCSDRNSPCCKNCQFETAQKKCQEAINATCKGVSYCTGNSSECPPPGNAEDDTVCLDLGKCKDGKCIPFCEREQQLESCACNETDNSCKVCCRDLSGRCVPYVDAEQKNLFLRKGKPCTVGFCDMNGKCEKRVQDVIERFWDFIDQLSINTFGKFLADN
Chain of human ADAMTS-5 (Q9UNA0 262-930): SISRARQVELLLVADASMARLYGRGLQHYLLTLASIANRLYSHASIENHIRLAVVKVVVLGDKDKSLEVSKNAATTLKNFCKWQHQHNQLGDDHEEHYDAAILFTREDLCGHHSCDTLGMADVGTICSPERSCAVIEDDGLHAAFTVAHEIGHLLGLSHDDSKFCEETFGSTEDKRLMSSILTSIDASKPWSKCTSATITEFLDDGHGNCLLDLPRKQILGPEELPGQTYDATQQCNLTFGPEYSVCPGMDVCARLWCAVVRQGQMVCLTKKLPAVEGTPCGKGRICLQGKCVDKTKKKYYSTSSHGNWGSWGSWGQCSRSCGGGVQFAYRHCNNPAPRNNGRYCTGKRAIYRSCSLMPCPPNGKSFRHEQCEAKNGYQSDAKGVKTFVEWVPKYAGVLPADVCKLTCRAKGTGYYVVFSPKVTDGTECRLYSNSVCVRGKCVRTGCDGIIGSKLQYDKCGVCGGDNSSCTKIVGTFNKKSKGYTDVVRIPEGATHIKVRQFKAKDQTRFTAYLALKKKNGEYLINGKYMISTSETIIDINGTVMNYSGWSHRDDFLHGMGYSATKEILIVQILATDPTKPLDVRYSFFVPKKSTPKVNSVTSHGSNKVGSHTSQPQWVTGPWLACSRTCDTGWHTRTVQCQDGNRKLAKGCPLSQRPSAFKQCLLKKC
Chain of human ADAMTS6 (Q9UKP5 other isoform, or with tags, fused parts or gaps): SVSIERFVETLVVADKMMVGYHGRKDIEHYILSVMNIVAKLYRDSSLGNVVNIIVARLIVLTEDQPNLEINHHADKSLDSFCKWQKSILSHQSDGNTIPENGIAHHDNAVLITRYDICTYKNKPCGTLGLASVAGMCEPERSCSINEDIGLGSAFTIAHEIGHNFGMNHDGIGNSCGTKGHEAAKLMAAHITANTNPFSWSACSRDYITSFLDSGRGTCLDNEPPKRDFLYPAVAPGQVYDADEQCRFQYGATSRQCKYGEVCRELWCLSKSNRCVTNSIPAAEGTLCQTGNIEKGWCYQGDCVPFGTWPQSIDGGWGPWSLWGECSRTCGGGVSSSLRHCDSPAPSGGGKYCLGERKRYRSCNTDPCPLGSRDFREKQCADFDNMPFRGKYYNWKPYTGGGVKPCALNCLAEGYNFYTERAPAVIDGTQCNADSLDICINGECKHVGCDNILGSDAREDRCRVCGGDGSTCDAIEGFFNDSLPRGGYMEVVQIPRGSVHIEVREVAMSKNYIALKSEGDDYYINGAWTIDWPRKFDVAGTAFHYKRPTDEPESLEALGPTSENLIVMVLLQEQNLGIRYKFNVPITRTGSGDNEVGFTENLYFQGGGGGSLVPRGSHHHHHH

The term IC50 denotes the concentration at which inhibition is half-maximal. As to `COc1ccccc1C1CCN(C(=O)CCC2(C)NC(=O)NC2=O)CC1` (stereo not drawn) [Cpd 6, 5-(3-(4-(2-methoxyphenyl)piperidin-1-yl)-3-oxopropyl)-5-methyl-imidazolidine-2,4-dione], the IC50 at human ADAMTS-5 and on human ADAMTS6 was over 100 nM in each case.

For the molecule `Cc1ccc(C2CCN(C(=O)CCC3(C)NC(=O)NC3=O)CC2)cc1` (stereo not drawn) [Cpd 8, 5-methyl-5-(3-oxo-3-(4-p-tolylpiperidin-1-yl)propyl) imidazolidine-2,4-dione], the IC50 at human ADAMTS-5 and on human ADAMTS6 was over 100 nM in each case.

`O=C1NC(=O)[C@H](CCC(=O)N2CCC(c3ccccc3)CC2)N1` [Cpd 1, (S)-5-[(3-oxo-3-((4S)-phenylpiperidin-1-yl)propyl]) imidazolidine-2,4-dione]: the IC50 on human ADAMTS-5 and at human ADAMTS6 was over 100 nM throughout.

`CC1(CCC(=O)N2CCC(c3ccccc3)CC2)NC(=O)NC1=O` (stereo not drawn) [Cpd 4, 5-methyl-5-(3-oxo-3-(4-phenylpiperidin-1-yl)propyl) imidazolidine-2,4-dione]: the IC50 at human ADAMTS-5, on human ADAMTS6 and at human TACE was over 100 nM in each case.

In the case of `CC1(CCC(=O)N2CCC(c3ccccc3F)CC2)NC(=O)NC1=O` (stereo not drawn) [Cpd 14, 5-(3-(4-(2-fluorophenyl)piperidin-1-yl)-3-oxopropyl)-5-methyl-imidazolidine-2,4-dione], the IC50 on human ADAMTS-5 and on human ADAMTS6 was over 100 nM in each case.

Consider `Cc1cccc(C2CCN(C(=O)CCC3(C)NC(=O)NC3=O)CC2)c1` (stereo not drawn) [Cpd 15, 5-methyl-5-(3-oxo-3-(4-m-tolylpiperidin-1-yl)propyl) imidazolidine-2,4-dione], for which the IC50 on human ADAMTS-5 and at human ADAMTS6 was over 100 nM in each case.

As for `CC1(CCC(=O)N2CCC(c3ccc(F)cc3)CC2)NC(=O)NC1=O` (stereo not drawn) [Cpd 10, 5-(3-(4-(4-fluorophenyl)piperidin-1-yl)-3-oxopropyl)-5-methyl-imidazolidine-2,4-dione], the IC50 at human ADAMTS-5, on human ADAMTS6, on human TACE and at human MMP13 was over 100 nM each time.

On to `O=C1NC(=O)C(CCC(=O)N2CCC(c3ccccc3)CC2)N1` (stereo not drawn) [Cpd 2, 5-[3-oxo-3-(4-phenyl-1-piperidyl)propyl] imidazolidine-2,4-dione], for which the IC50 on human ADAMTS-5, on human ADAMTS6 and at human TACE was over 100 nM throughout.

As for `CC1(CCC(=O)N2CCC(c3ccc(Cl)cc3)CC2)NC(=O)NC1=O` (stereo not drawn) [Cpd 12, 5-(3-(4-(4-chlorophenyl)piperidin-1-yl)-3-oxopropyl)-5-methyl-imidazolidine-2,4-dione], the IC50 is over 100 nM at human ADAMTS-5, 50 to 100 nM at human ADAMTS6, over 100 nM on human TACE and over 100 nM at human MMP13.

On to `CC(C)C1(CCC(=O)N2CCC(c3ccccc3)CC2)NC(=O)NC1=O` (stereo not drawn) [Cpd 5, 5-isopropyl-5-(3-oxo-3-(4-phenylpiperidin-1-yl)propyl) imidazolidine-2,4-dione], for which the IC50 at human ADAMTS-5 is 50 to 100 nM; at human ADAMTS6, over 100 nM; on human TACE, over 100 nM.

For the molecule `CC1(CCC(=O)N2CCC(c3cccc(Cl)c3)CC2)NC(=O)NC1=O` (stereo not drawn) [Cpd 11, 5-(3-(4-(3-chlorophenyl)piperidin-1-yl)-3-oxopropyl)-5-methyl-imidazolidine-2,4-dione], the IC50 at human ADAMTS-5 is over 100 nM; at human ADAMTS6, 50 to 100 nM; at human TACE it was over 100 nM; on human MMP13, over 100 nM.

For `CC1(CCC(=O)N2CCC(c3cccc(F)c3)CC2)NC(=O)NC1=O` (stereo not drawn) [Cpd 13, 5-(3-(4-(3-fluorophenyl)piperidin-1-yl)-3-oxopropyl)-5-methyl-imidazolidine-2,4-dione], the IC50 at human ADAMTS-5 and on human ADAMTS6 was over 100 nM throughout.
